What was measured:
IL-17A : IL-17RA binding = target: T1, IL-17A : IL-17RA binding (Homo sapiens, UniProt Q16552, K93Q); experiment: IL-17A(FLAG-tagged):IL-17RA(His-tagged) binding disruption Eu-HTRF assay, Protocol 1; settings: FLAG-IL-17A 2.5 nM at 2x final concentration; average if tested more than once
T1 construct: Name: IL-17A-Flag
In short: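 IC50 came from a one-site competition fit of the acceptor/donor (665/620 nm) HTRF ratio. His-tagged IL-17RA, Eu-anti-FLAG and D2-anti-His were added after a 1 h rt compound preincubation with FLAG-tagged IL-17A dimer in PBS/0.01% Triton X-100, followed by 2 h at rt before reading.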

[1] = test system: IL-17A-induced G-CSF production in human normal keratinocyte (NHK); experiment: NHK assay: IL-17A-induced G-CSF production in normal human keratinocytes; assay type: cell-based; settings: Homo sapiens, Keratinocyte, 24 h, IL-17A 5 ng/mL, average if tested more than once
In short: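 Compound titrations are first mixed with recombinant human IL-17A for 1 h at room temperature. The mixture goes onto adult normal human keratinocytes (final IL-17A 5 ng/mL, 5% FBS, 0.2% DMSO) for 24 h at 37 °C. Secreted G-CSF is then measured by HTRF and IC50 fitted.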

T1 sequence (Q16552 with tags, fused parts or gaps K93Q): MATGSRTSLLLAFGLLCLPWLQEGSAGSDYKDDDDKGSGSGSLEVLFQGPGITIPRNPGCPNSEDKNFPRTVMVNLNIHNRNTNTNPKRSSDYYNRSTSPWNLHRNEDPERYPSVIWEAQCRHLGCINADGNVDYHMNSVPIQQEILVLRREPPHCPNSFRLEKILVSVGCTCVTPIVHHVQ

IC50 (IL-17A : IL-17RA binding)	Compound	IC50 [1]
> 0.1 µM	C[C@@H](NC(=O)CCC(F)(F)F)c1ccc2[nH]c([C@@H](NC(=O)c3cn(CC(F)(F)F)nn3)C3CCC(F)(F)CC3)nc2c1 [Example 24, N—[(S)-(4,4-Difluorocyclohexyl)-[6-[(1R)-1-(4,4,4-trifluorobutanoylamino)ethyl]-1H-benzimidazol-2-yl]methyl]-1-(2,2,2-trifluoroethyl)triazole-4-carboxamide]	> 0.1 µM
> 0.1 µM	Cc1n[nH]cc1C(=O)N[C@H](c1nc2cc([C@@H](C)NC(=O)CCC(F)(F)F)ccc2[nH]1)C1CCC(F)(F)CC1 [Example 25, N—[(S)-(4,4-Difluorocyclohexyl)-[6-[(1R)-1-(4,4,4-trifluorobutanoylamino)ethyl]-1H-benzimidazol-2-yl]methyl]-3-methyl-1H-pyrazole-4-carboxamide]	> 0.1 µM
> 0.1 µM	C[C@@H](NC(=O)CCC(F)(F)F)c1ccc2[nH]c([C@@H](NC(=O)c3cnn(CCOC(F)(F)F)c3)C3CCC(F)(F)CC3)nc2c1 [Example 26, N—[(S)-(4,4-Difluorocyclohexyl)-[6-[(1R)-1-(4,4,4-trifluorobutanoylamino)ethyl]-1H-benzimidazol-2-yl]methyl]-1-[2-(trifluoromethoxy)ethyl]pyrazole-4-carboxamide]	> 0.1 µM
> 0.1 µM	C[C@@H](NC(=O)CCC(F)(F)F)c1ccc2[nH]c([C@@H](NC(=O)c3cnn(CCOC(F)F)c3)C3CCC(F)(F)CC3)nc2c1 [Example 27, N—[(S)-(4,4-Difluorocyclohexyl)-[6-[(1R)-1-(4,4,4-trifluorobutanoylamino)ethyl]-1H-benzimidazol-2-yl]methyl]-1-[2-(difluoromethoxy)ethyl]pyrazole-4-carboxamide]	> 0.1 µM
> 0.1 µM	Cc1c(C(=O)N[C@H](c2nc3ccc([C@@H](C)NC(=O)CCC(F)(F)F)cc3[nH]2)C2CCC(F)(F)CC2)cnn1CC(F)F [Example 28, N—[(S)-(4,4-Difluorocyclohexyl)-[6-[(1R)-1-(4,4,4-trifluorobutanoylamino)ethyl]-1H-benzimidazol-2-yl]methyl]-1-(2,2-difluoroethyl)-5-methyl-pyrazole-4-carboxamide]	> 0.1 µM
> 0.1 µM	C[C@@H](NC(=O)CCC(F)(F)F)c1ccc2[nH]c([C@@H](NC(=O)c3ncn(CC4CC4)n3)C3CCC(F)(F)CC3)nc2c1 [Example 29, 1-(Cyclopropylmethyl)-N—[(S)-(4,4-difluorocyclohexyl)-[6-[(1R)-1-(4,4,4-trifluorobutanoylamino)ethyl]-1H-benzimidazol-2-yl]methyl]-1,2,4-triazole-3-carboxamide]	> 0.1 µM
0.05 to 0.1 µM	C[C@@H](NC(=O)CCC(F)(F)F)c1ccc2[nH]c([C@@H](NC(=O)c3ncnn3CC3CC3)C3CCC(F)(F)CC3)nc2c1 [Example 30, 2-(Cyclopropylmethyl)-N—[(S)-(4,4-difluorocyclohexyl)-[6-[(1R)-1-(4,4,4-trifluorobutanoylamino)ethyl]-1H-benzimidazol-2-yl]methyl]-1,2,4-triazole-3-carboxamide]	> 0.1 µM
> 0.1 µM	C[C@@H](NC(=O)CCC(F)(F)F)c1ccc2[nH]c([C@@H](NC(=O)c3ncnn3C)C3CCC(F)(F)CC3)nc2c1 [Example 31, N—[(S)-(4,4-Difluorocyclohexyl)-[6-[(1R)-1-(4,4,4-trifluorobutanoylamino)ethyl]-1H-benzimidazol-2-yl]methyl]-2-methyl-1,2,4-triazole-3-carboxamide]	> 0.1 µM
> 0.1 µM	C[C@@H](NC(=O)CCC(F)(F)F)c1ccc2[nH]c([C@@H](NC(=O)c3ncn(C)n3)C3CCC(F)(F)CC3)nc2c1 [Example 32, N—[(S)-(4,4-Difluorocyclohexyl)-[6-[(1R)-1-(4,4,4-trifluorobutanoylamino)ethyl]-1H-benzimidazol-2-yl]methyl]-1-methyl-1,2,4-triazole-3-carboxamide]	> 0.1 µM
